Where a SMILES comes first, the peptide text is derived from it. [ ]: non-standard residue; d: D form. The star is where a group is joined. pNA = O=[N+]([O-])c1ccc(N*)cc1; Tos = Cc1ccc(S(=O)(=O)*)cc1
Assays:
Kallikrein (KL) = Kallikrein (KL) (Sus scrofa, UniProt P00752); assay type: biochemical, Pig; settings: pH 7.9, 37° C., 10 minutes, 1.0 BAEE-U/ml; for Selectivity KL, absorbance (O.D.) at 645 nm: TABLE 4, CHA substrates, So = 0.54; for Selectivity KL, absorbance (O.D.) at 405 nm: TABLE 3, PNA substrates, So = 0.54 mmole/l
Sequence of Kallikrein (KL) (P00752 8-246): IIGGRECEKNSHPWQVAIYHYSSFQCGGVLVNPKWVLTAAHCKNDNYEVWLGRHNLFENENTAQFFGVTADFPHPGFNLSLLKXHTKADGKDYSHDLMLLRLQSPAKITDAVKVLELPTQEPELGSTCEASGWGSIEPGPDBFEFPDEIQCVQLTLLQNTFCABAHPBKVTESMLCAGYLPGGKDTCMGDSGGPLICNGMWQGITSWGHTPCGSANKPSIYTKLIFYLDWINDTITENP
Method: (§1) The specificities of the novelly synthesized substrates were tested by reacting them with various enzymes respectively.
(§2) (1) Substrate solution concentration: 35 mmole/liter H2 O
(§3) (2) Buffer: Tris-hydrochloric acid buffer 50 mmole/l, NaCl 150 mmole/l (0.875%) was employed, and the pH for reaction was as follows depending on the enzyme.
(§4) 2,6-Xylenol 7.0 mmole+NaIO4 1.5 mmole/0.2N KOH
(§5) 0.5 ml of the buffer solution and 0.05 ml of the enzyme reagent were taken into a silicon-treated hard glass test tube or a plastic test tube, and preheated in a constant temperature bath at 37° C. for 5 minutes. Thereafter, 0.1 ml of the substrate solution was added to effect the enzymatic reaction at 37° C. for 10 minutes. Exactly after 10 minutes, 2.5 ml of the reaction terminating solution or the terminating and color developing reagent solution was added to terminate the enzymatic reaction, and after allowing to stand at 25° C. for 10 minutes, the absorbance at 405 nm or 645 nm was measured, in which [drawing 49]

Urokinase (UK) = Urokinase (UK) (Homo sapiens, UniProt P00749); assay type: biochemical; settings: pH 8.2, 37° C., 10 minutes, 1000 IU/ml; for Selectivity UK, absorbance (O.D.) at 645 nm: TABLE 4, CHA substrates, So = 0.54; for Selectivity UK, absorbance (O.D.) at 405 nm: TABLE 3, PNA substrates, So = 0.54 mmole/l
Method: as §1, §2, §3, §4, §5

Factor-Xa (FXa) = Factor-Xa (FXa) (Bos taurus, UniProt P00743); assay type: biochemical, Cow; settings: pH 8.4, 37° C., 10 minutes, 0.4 U/ml; for Selectivity FXa, absorbance (O.D.) at 645 nm: TABLE 4, CHA substrates, So = 0.54; for Selectivity FXa, absorbance (O.D.) at 405 nm: TABLE 3, PNA substrates, So = 0.54 mmole/l
Sequence of Factor-Xa (FXa) (P00743 41-180): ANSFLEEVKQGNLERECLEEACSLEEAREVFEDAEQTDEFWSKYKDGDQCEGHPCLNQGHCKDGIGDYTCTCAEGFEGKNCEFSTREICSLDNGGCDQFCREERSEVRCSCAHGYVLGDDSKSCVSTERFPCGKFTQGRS
Sequence of Factor-Xa (FXa) (P00743 234-492): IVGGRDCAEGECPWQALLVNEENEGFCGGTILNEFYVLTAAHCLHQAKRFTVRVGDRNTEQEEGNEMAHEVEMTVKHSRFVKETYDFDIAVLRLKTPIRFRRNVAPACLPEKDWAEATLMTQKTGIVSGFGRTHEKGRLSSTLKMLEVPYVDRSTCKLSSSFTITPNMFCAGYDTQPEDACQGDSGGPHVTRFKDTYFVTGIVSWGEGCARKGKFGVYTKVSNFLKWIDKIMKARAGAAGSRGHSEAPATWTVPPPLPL
Method: as §1, §2, §3, §4, §5

Plasmin (PL) = Plasmin (PL) (Sus scrofa, UniProt P06867); assay type: biochemical, Pig; settings: pH 7.4, 37° C., 10 minutes, 0.32 CU/ml; for Selectivity PL, absorbance (O.D.) at 645 nm: TABLE 4, CHA substrates, So = 0.54; for Selectivity PL, absorbance (O.D.) at 405 nm: TABLE 3, PNA substrates, So = 0.54 mmole/l
Sequence of Plasmin (PL) (P06867 97-809): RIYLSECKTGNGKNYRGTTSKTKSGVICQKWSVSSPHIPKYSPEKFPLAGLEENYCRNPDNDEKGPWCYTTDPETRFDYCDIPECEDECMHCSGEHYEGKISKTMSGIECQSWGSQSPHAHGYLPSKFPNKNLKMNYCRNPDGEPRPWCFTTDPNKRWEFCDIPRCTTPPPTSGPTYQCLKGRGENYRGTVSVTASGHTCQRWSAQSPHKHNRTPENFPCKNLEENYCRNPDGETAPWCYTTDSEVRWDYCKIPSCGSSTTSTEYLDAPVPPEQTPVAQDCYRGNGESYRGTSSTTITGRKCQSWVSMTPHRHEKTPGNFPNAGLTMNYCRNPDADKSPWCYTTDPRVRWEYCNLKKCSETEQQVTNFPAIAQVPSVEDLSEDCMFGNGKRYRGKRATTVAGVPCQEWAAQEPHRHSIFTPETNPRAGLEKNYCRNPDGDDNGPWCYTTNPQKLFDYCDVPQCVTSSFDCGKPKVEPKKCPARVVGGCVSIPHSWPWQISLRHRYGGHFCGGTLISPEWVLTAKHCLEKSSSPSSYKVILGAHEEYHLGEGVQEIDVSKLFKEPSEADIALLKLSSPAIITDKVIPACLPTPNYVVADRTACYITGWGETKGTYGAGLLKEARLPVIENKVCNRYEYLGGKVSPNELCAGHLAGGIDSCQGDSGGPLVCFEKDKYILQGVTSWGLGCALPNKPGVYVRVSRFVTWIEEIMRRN
Method: as §2, §3
Plasmin Pig Sigma (U.S.A.)
as §5

Thrombin (TH) = Thrombin (TH) (Bos taurus, UniProt P00735); assay type: biochemical, Cow; settings: pH 8.4, 37° C., 10 minutes, 1.0 NIH/ml; for Selectivity TH, absorbance (O.D.) at 645 nm: TABLE 4, CHA substrates, So = 0.54; for Selectivity TH, absorbance (O.D.) at 405 nm: TABLE 3, PNA substrates, So = 0.54 mmole/l
Sequence of Thrombin (TH) (P00735 44-625): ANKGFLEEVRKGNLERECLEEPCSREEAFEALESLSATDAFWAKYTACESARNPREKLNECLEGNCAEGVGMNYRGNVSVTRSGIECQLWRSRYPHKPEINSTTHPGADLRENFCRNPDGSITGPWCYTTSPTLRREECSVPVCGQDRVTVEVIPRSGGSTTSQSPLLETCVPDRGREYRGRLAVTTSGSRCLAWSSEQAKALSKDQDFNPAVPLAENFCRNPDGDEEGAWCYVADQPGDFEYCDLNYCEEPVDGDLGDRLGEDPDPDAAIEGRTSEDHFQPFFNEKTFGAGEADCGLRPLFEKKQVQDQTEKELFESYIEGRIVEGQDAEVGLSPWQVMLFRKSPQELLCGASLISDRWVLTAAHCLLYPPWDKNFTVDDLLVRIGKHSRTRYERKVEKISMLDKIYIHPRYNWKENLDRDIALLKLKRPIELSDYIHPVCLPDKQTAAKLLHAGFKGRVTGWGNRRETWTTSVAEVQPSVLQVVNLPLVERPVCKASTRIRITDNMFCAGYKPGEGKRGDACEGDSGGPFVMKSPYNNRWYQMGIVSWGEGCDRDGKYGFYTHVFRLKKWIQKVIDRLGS
Method: as §1, §2, §3, §4, §5

plasmin (pig) = plasmin (pig) (Sus scrofa, UniProt P06867); test: Km, Vmax and Vmax/Km of substrates for plasmin (pig); assay type: biochemical, Porcine (pig); settings: for Vmax (× 10^-7): TABLE 2, CHA substrates, plasmin (pig), 2,6-xylenol 615 nm; for Vmax (× 10^7): 405 nm
Sequence of plasmin (pig) (P06867 97-809): as the sequence (P06867 97-809) above

[1] = TABLE 2, V/Km of each sample divided by that of S2251 (so in the source)
[2] = TABLE 1, PNA substrates, plasmin (pig)
[3] = TABLE 1, V/Km of each sample divided by that of S2251

Selectivity KL, absorbance (O.D.) at 645 nm (Kallikrein (KL))	Selectivity UK, absorbance (O.D.) at 645 nm (Urokinase (UK))	Selectivity FXa, absorbance (O.D.) at 645 nm (Factor-Xa (FXa))	Selectivity PL, absorbance (O.D.) at 645 nm (Plasmin (PL))	Selectivity TH, absorbance (O.D.) at 645 nm (Thrombin (TH))	Vmax (× 10^-7) (plasmin (pig))	Relative ratio (plasmin (pig); [1])	Compound	Selectivity KL, absorbance (O.D.) at 405 nm (Kallikrein (KL))	Selectivity UK, absorbance (O.D.) at 405 nm (Urokinase (UK))	Selectivity FXa, absorbance (O.D.) at 405 nm (Factor-Xa (FXa))	Selectivity PL, absorbance (O.D.) at 405 nm (Plasmin (PL))	Selectivity TH, absorbance (O.D.) at 405 nm (Thrombin (TH))	Vmax (× 10^7) (plasmin (pig); [2])	Relative ratio (plasmin (pig); [3])	Vmax (× 10^-6) [mole/min/Cu] (plasmin (pig); Porcine Plasmin, comparison table in description)	V/Km (× 10^-3) (plasmin (pig); [2])
0.004 O.D.	0.001 O.D.	0.002 O.D.	0.118 O.D.	0.001 O.D.	8.266 × 10^-7	31.117	CCCC(=O)NCCCC[C@@H](N)C(=O)N[C@@H](Cc1ccccc1)C(=O)N[C@@H](CCCCN)C(=O)Nc1ccc(O)c(C(=O)O)c1 [NPC-19]	–	–	–	–	–	–	–	–	–
0.019 O.D.	0.004 O.D.	0.006 O.D.	0.467 O.D.	0 O.D.	40.725 × 10^-7	74.040	NCCCC[C@H](NC(=O)[C@H](Cc1ccccc1)NC(=O)[C@H](N)CCCCNC(=O)OCc1ccccc1)C(=O)Nc1ccc(O)c(C(=O)O)c1 [NPC-20]	–	–	–	–	–	–	–	–	–
0.010 O.D.	0.004 O.D.	0.003 O.D.	0.093 O.D.	0 O.D.	6.802 × 10^-7	17.414	CC(C)OC(=O)C[C@@H](N)C(=O)N[C@@H](Cc1ccccc1)C(=O)N[C@@H](CCCCN)C(=O)Nc1ccc(O)c(C(=O)O)c1 [NPC-21]	–	–	–	–	–	–	–	–	–
0.006 O.D.	0 O.D.	0 O.D.	0.185 O.D.	0 O.D.	15.803 × 10^-7	43.613	CS(=O)(=O)NCCCC[C@@H](N)C(=O)N[C@@H](Cc1ccccc1)C(=O)N[C@@H](CCCCN)C(=O)Nc1ccc(O)c(C(=O)O)c1 [NPC-25]	–	–	–	–	–	–	–	–	–
–	–	–	–	–	–	–	Cc1ccc(S(=O)(=O)NCCCC[C@@H](N)C(=O)N[C@@H](CC(C)C)C(=O)N[C@@H](CCCCN)C(=O)Nc2ccc([N+](=O)[O-])cc2)cc1 [NPN-1, HD-Lys(Tos)LeuLysPNA.2HBr] (H-[dK](Tos)-Leu-Lys-pNA)	0.006 O.D.	0.001 O.D.	0.003 O.D.	0.457 O.D.	0 O.D.	63.600 × 10^7	2.937	–	–
–	–	–	–	–	–	–	Cc1ccc(S(=O)(=O)NCCCC[C@@H](N)C(=O)N[C@@H](Cc2ccccc2)C(=O)N[C@@H](CCCCN)C(=O)Nc2ccc([N+](=O)[O-])cc2)cc1 [NPN-2, H-D-Lys(ToS)-Phe-Lys PNA.2HBr] (H-[dK](Tos)-Phe-Lys-pNA)	0.004 O.D.	0.001 O.D.	0.003 O.D.	0.383 O.D.	0 O.D.	47.968 × 10^7	26.517	4.8 × 10^-6 mole/min/Cu	303.595 × 10^-3
–	–	–	–	–	–	–	NCCCC[C@H](NC(=O)[C@H](Cc1ccccc1)NC(=O)[C@H](N)CCC(=O)OC1CCCCC1)C(=O)Nc1ccc([N+](=O)[O-])cc1 [NPN-3, HD-Glu(CHN)PheLysPNA.2HBr] (HELM PEPTIDE1{[dE].F.K.[O=[N+]([O-])c1ccc(N[*:1])cc1]}|CHEM1{[C1CCC(O[*:1])CC1]}$PEPTIDE1,CHEM1,1:R3-1:R1$$$V2.0)	0.009 O.D.	0.001 O.D.	0.003 O.D.	0.466 O.D.	0 O.D.	65.287 × 10^7	17.726	–	–
–	–	–	–	–	–	–	NCCCC[C@H](NC(=O)[C@H](Cc1ccccc1)NC(=O)[C@H](N)CCC(=O)NCCc1ccccc1)C(=O)Nc1ccc([N+](=O)[O-])cc1 [NPN-4] (HELM PEPTIDE1{[dE].F.K.[O=[N+]([O-])c1ccc(N[*:1])cc1]}|CHEM1{[c1ccc(CCN[*:1])cc1]}$PEPTIDE1,CHEM1,1:R3-1:R1$$$V2.0)	0.010 O.D.	0.002 O.D.	0.006 O.D.	0.330 O.D.	0.001 O.D.	23.895 × 10^7	7.481	–	–
–	–	–	–	–	–	–	NCCCC[C@H](NC(=O)[C@H](Cc1ccccc1)NC(=O)[C@H](N)CCC(=O)NCCCc1ccccc1)C(=O)Nc1ccc([N+](=O)[O-])cc1 [NPN-5]	0.014 O.D.	0.001 O.D.	0.005 O.D.	0.525 O.D.	0 O.D.	24.892 × 10^7	5.534	–	–
–	–	–	–	–	–	–	NCCCC[C@H](NC(=O)[C@H](Cc1ccccc1)NC(=O)[C@H](N)CCC(=O)NCCCCc1ccccc1)C(=O)Nc1ccc([N+](=O)[O-])cc1 [NPN-6]	0.018 O.D.	0.012 O.D.	0.003 O.D.	0.646 O.D.	0 O.D.	28.209 × 10^7	5.427	–	–
–	–	–	–	–	–	–	Cc1ccc(CCNC(=O)CC[C@@H](N)C(=O)N[C@@H](Cc2ccccc2)C(=O)N[C@@H](CCCCN)C(=O)Nc2ccc([N+](=O)[O-])cc2)cc1 [NPN-7]	0.011 O.D.	0.002 O.D.	0.008 O.D.	0.427 O.D.	0.001 O.D.	20.908 × 10^7	4.638	–	–
–	–	–	–	–	–	–	NCCCC[C@H](NC(=O)[C@H](Cc1ccccc1)NC(=O)[C@H](N)CCC(=O)OCCc1ccccc1)C(=O)Nc1ccc([N+](=O)[O-])cc1 [NPN-8]	0.014 O.D.	0.003 O.D.	0.005 O.D.	0.181 O.D.	0 O.D.	28.542 × 10^7	8.019	–	–
–	–	–	–	–	–	–	Cc1ccc(CCOC(=O)CC[C@@H](N)C(=O)N[C@@H](Cc2ccccc2)C(=O)N[C@@H](CCCCN)C(=O)Nc2ccc([N+](=O)[O-])cc2)cc1 [NPN-9]	0.016 O.D.	0.002 O.D.	0.006 O.D.	0.299 O.D.	0 O.D.	30.202 × 10^7	6.171	–	–

Compound	Selectivity KL, absorbance (O.D.) at 645 nm (Kallikrein (KL))	Selectivity UK, absorbance (O.D.) at 645 nm (Urokinase (UK))	Selectivity FXa, absorbance (O.D.) at 645 nm (Factor-Xa (FXa))	Selectivity PL, absorbance (O.D.) at 645 nm (Plasmin (PL))	Selectivity TH, absorbance (O.D.) at 645 nm (Thrombin (TH))	Vmax (× 10^-7) (plasmin (pig))	Relative ratio (plasmin (pig); [1])	Selectivity KL, absorbance (O.D.) at 405 nm (Kallikrein (KL))	Selectivity UK, absorbance (O.D.) at 405 nm (Urokinase (UK))	Selectivity FXa, absorbance (O.D.) at 405 nm (Factor-Xa (FXa))	Selectivity PL, absorbance (O.D.) at 405 nm (Plasmin (PL))	Selectivity TH, absorbance (O.D.) at 405 nm (Thrombin (TH))	Vmax (× 10^7) (plasmin (pig); [2])	Relative ratio (plasmin (pig); [3])	Vmax (× 10^-6) [mole/min/Cu] (plasmin (pig); Porcine Plasmin, comparison table in description)	V/Km (× 10^-3) (plasmin (pig); [2])
NCCCC[C@H](NC(=O)[C@H](Cc1ccccc1)NC(=O)[C@H](N)CC(=O)OC1CCCCC1)C(=O)Nc1ccc(O)c(C(=O)O)c1 [NPC-22]	0.023 O.D.	0.026 O.D.	0.015 O.D.	0.213 O.D.	0 O.D.	17.991 × 10^-7	42.715	–	–	–	–	–	–	–	–	–
NCCCC[C@H](NC(=O)[C@H](Cc1ccccc1)NC(=O)[C@H](N)CCC(=O)NCCc1ccccc1)C(=O)Nc1ccc(O)c(C(=O)O)c1 [NPC-23]	0.009 O.D.	0.004 O.D.	0.005 O.D.	0.223 O.D.	0 O.D.	18.963 × 10^-7	43.045	–	–	–	–	–	–	–	–	–
Cc1ccc(CCNC(=O)CC[C@@H](N)C(=O)N[C@@H](Cc2ccccc2)C(=O)N[C@@H](CCCCN)C(=O)Nc2ccc(O)c(C(=O)O)c2)cc1 [NPC-24]	0.009 O.D.	0.004 O.D.	0.005 O.D.	0.279 O.D.	0 O.D.	21.637 × 10^-7	46.748	–	–	–	–	–	–	–	–	–

Source: patent US4605614A, “Method for measuring plasmin” (Nitto Boseki Co., Ltd., priority 1981, dated 1986)
